Tests used:
Assay type in all cases: in vivo
Details in all cases: rated four to five weeks after treatment
[1] = tested on: AMBROSIA ARTEMISIIFOLIA, L.; experiment: Preemergence herbicidal evaluation, AMBEL (Ragweed, Common)
Excerpt: (§1) Results of herbicide evaluation are expressed on a rating scale (0-9). The scale is based upon a visual observation of plant stand, vigor, malformation, size, chlorosis and overall plant appearance as compared with a control.
(§2) The preemergence herbicidal activity of the test compounds of the present invention is exemplified by the following tests in which the seeds of a variety of monocotyledonous and dicotyledonous plants are separately mixed with potting soil and planted on top of approximately one inch of soil in separate pint cups. After planting, the cups are sprayed with the selected aqueous acetone solution containing test compound in sufficient quantity to provide the equivalent of about 0.125 to 0.50 kg per hectare of test compound per cup. The treated cups are then placed on greenhouse benches, watered and cared for in accordance with conventional greenhouse procedures. From four to five weeks after treatment, the tests are terminated and each cup is examined and rated according to the rating system provided in Example 42.

[2] = tested on: TRITICUM AESTIVUM, CV. APOLLO; experiment: Preemergence herbicidal evaluation, TRZAWO (Wheat, Winter, CV. APOLLO)
Excerpt: as §1, §2

[3] = tested on: ORYZA SATIVA, L. TEBONNET; experiment: Preemergence herbicidal evaluation, ORYSAT (Rice, Tebonnet)
Excerpt: as §1, §2

ZEA MAYS L. = experiment: Preemergence herbicidal evaluation, ZEAMX (Corn, Field)
Excerpt: as §1, §2

[4] = tested on: ECHINOCHLOA CRUS-GALLI, (L) BEAU; experiment: Postemergence herbicidal evaluation, ECHCG (Barnyardgrass)
Experimental: (§3) In the tests, seedling plants are grown in jiffy flats for about two weeks. The test compounds are dispersed in 50/50 acetone/water mixtures containing 0.5% TWEEN®20, a polyoxyethylene sorbitan monolaurate surfactant of Atlas Chemical Industries, in sufficient quantities to provide the equivalent of about 0.125 kg to 0.500 kg per hectare of active compound when applied to the plants through a spray nozzle operating at 40 psi for a predetermined time. After spraying, the plants are placed on greenhouse benches and are cared for in the usual manner, commensurate with conventional greenhouse practices. From four to five weeks after treatment, the seedling plants are examined and rated according to the rating system set forth below. Where more than one test is involved for a given compound, the data are averaged.
as §1

[5] = tested on: GLYCINE MAX(L)MERR. CV. WILLIAMS; experiment: Preemergence herbicidal evaluation, GLXMAW (Soybean, Williams)
Excerpt: as §1, §2

[6] = tested on: ABUTILON THEOPHRASTI, MEDIC.; experiment: Preemergence herbicidal evaluation, ABUTH (Velvetleaf)
Excerpt: as §1, §2

IPOMOEA SPP. = experiment: Preemergence herbicidal evaluation, IPOSS (Morningglory Spp.)
Excerpt: as §1, §2

[7] = tested on: SETARIA VIRIDIS, (L) BEAU; experiment: Postemergence herbicidal evaluation, SETVI (Foxtail, Green)
Experimental: as §3, §1

[8] = tested on: ECHINOCHLOA CRUS-GALLI, (L) BEAU; experiment: Preemergence herbicidal evaluation, ECHCG (Barnyardgrass)
Excerpt: as §1, §2

CASSIA OBTUSIFOLIA, L. = experiment: Preemergence herbicidal evaluation, CASOB (Sicklepod)
Excerpt: as §1, §2

[9] = tested on: SETARIA VIRIDIS, (L) BEAU; experiment: Preemergence herbicidal evaluation, SETVI (Foxtail, Green)
Excerpt: as §1, §2

Cn1c(=O)n(CC(=O)O)c(=O)n(-c2cc(N3C(=O)C4=C(CCCC4)C3=O)c(F)cc2Cl)c1=O [Compound 3, 3-[2-Chloro-5-(1-cyclohexene-1,2-dicarbox-imido)-4-fluorophenyl]tetrahydro-5-methyl-2,4,6-trioxo-s-triazine-1(2H)-acetic acid]
Herbicide rating (0-9) AMBEL ([1]; 0.125 kg/ha): 0.0 | Herbicide rating (0-9) AMBEL ([1]; 0.250 kg/ha): 0.0 | Herbicide rating (0-9) AMBEL ([1]; 0.500 kg/ha): 0.0 | Herbicide rating (0-9) TRZAWO ([2]; 0.125 kg/ha): 0.0 | Herbicide rating (0-9) TRZAWO ([2]; 0.250 kg/ha): 0.0 | Herbicide rating (0-9) TRZAWO ([2]; 0.500 kg/ha): 0.0 | Herbicide rating (0-9) ORYSAT ([3]; 0.125 kg/ha): 0.0 | Herbicide rating (0-9) ORYSAT ([3]; 0.250 kg/ha): 0.0 | Herbicide rating (0-9) ORYSAT ([3]; 0.500 kg/ha): 0.0 | Herbicide rating (0-9) ZEAMX (ZEA MAYS L.; 0.125 kg/ha): 0.0 | Herbicide rating (0-9) ZEAMX (ZEA MAYS L.; 0.250 kg/ha): 0.0 | Herbicide rating (0-9) ZEAMX (ZEA MAYS L.; 0.500 kg/ha): 0.0 | Herbicide rating (0-9) ECHCG ([4]; 0.125 kg/ha): 0.0 | Herbicide rating (0-9) ECHCG ([4]; 0.250 kg/ha): 0.0 | Herbicide rating (0-9) ECHCG ([4]; 0.500 kg/ha): 0.0 | Herbicide rating (0-9) GLXMAW ([5]; 0.125 kg/ha): 0.0 | Herbicide rating (0-9) GLXMAW ([5]; 0.250 kg/ha): 0.0 | Herbicide rating (0-9) GLXMAW ([5]; 0.500 kg/ha): 0.0 | Herbicide rating (0-9) ABUTH ([6]; 0.125 kg/ha): 0.0 | Herbicide rating (0-9) ABUTH ([6]; 0.250 kg/ha): 0.0 | Herbicide rating (0-9) ABUTH ([6]; 0.500 kg/ha): 0.0 | Herbicide rating (0-9) IPOSS (IPOMOEA SPP.; 0.125 kg/ha): 0.0 | Herbicide rating (0-9) IPOSS (IPOMOEA SPP.; 0.250 kg/ha): 0.0 | Herbicide rating (0-9) IPOSS (IPOMOEA SPP.; 0.500 kg/ha): 0.0 | Herbicide rating (0-9) SETVI ([7]; 0.125 kg/ha): 0.0 | Herbicide rating (0-9) SETVI ([7]; 0.250 kg/ha): 0.0 | Herbicide rating (0-9) SETVI ([7]; 0.500 kg/ha): 0.0

COC(=O)Cn1c(=O)n(C)c(=O)n(-c2cc(N3C(=O)C4=C(CCCC4)C3=O)c(Cl)cc2Cl)c1=O [Compound 6, Methyl 3-[2,4-dichloro-5-(1-cyclohexene-1,2-dicarboximido)phenyl]tetrahydro-5-methyl-2,4,6-trioxo-s-triazine-1(2H)-acetate]
Herbicide rating (0-9) ECHCG ([8]; 0.125 kg/ha): 0.0 | Herbicide rating (0-9) ECHCG ([8]; 0.250 kg/ha): 0.0 | Herbicide rating (0-9) ECHCG ([8]; 0.500 kg/ha): 0.0 | Herbicide rating (0-9) TRZAWO ([2]; 0.125 kg/ha): 2.0 | Herbicide rating (0-9) TRZAWO ([2]; 0.250 kg/ha): 2.0 | Herbicide rating (0-9) TRZAWO ([2]; 0.500 kg/ha): 2.0 | Herbicide rating (0-9) ORYSAT ([3]; 0.125 kg/ha): 4.0 | Herbicide rating (0-9) ORYSAT ([3]; 0.250 kg/ha): 4.0 | Herbicide rating (0-9) ORYSAT ([3]; 0.500 kg/ha): 4.0 | Herbicide rating (0-9) IPOSS (IPOMOEA SPP.; 0.125 kg/ha): 4.0 | Herbicide rating (0-9) IPOSS (IPOMOEA SPP.; 0.250 kg/ha): 4.0 | Herbicide rating (0-9) IPOSS (IPOMOEA SPP.; 0.500 kg/ha): 4.0

Cn1c(=O)n(CC(=O)OC(C)(C)C)c(=O)n(-c2cc(N3C(=O)C4=C(CCCC4)C3=O)c(Cl)cc2Cl)c1=O [Compound 7, Tert-butyl 3-[2,4-dichloro-5-(1-cyclohexene-1,2-dicarboximido)phenyl]tetrahydro-5-methyl-2,4,6-trioxo-s-triazine-1(2H)-acetate]
Herbicide rating (0-9) ECHCG ([8]; 0.125 kg/ha): 0.0 | Herbicide rating (0-9) ECHCG ([8]; 0.250 kg/ha): 0.0 | Herbicide rating (0-9) ECHCG ([8]; 0.500 kg/ha): 0.0 | Herbicide rating (0-9) AMBEL ([1]; 0.125 kg/ha): 0.0 | Herbicide rating (0-9) AMBEL ([1]; 0.250 kg/ha): 0.0 | Herbicide rating (0-9) CASOB (CASSIA OBTUSIFOLIA, L.; 0.125 kg/ha): 0.0 | Herbicide rating (0-9) CASOB (CASSIA OBTUSIFOLIA, L.; 0.250 kg/ha): 0.0 | Herbicide rating (0-9) CASOB (CASSIA OBTUSIFOLIA, L.; 0.500 kg/ha): 0.0 | Herbicide rating (0-9) ZEAMX (ZEA MAYS L.; 0.125 kg/ha): 0.0 | Herbicide rating (0-9) ZEAMX (ZEA MAYS L.; 0.250 kg/ha): 0.0 | Herbicide rating (0-9) ZEAMX (ZEA MAYS L.; 0.500 kg/ha): 0.0 | Herbicide rating (0-9) GLXMAW ([5]; 0.125 kg/ha): 0.0 | Herbicide rating (0-9) GLXMAW ([5]; 0.250 kg/ha): 0.0 | Herbicide rating (0-9) GLXMAW ([5]; 0.500 kg/ha): 0.0 | Herbicide rating (0-9) IPOSS (IPOMOEA SPP.; 0.125 kg/ha): 0.0 | Herbicide rating (0-9) IPOSS (IPOMOEA SPP.; 0.250 kg/ha): 0.0 | Herbicide rating (0-9) IPOSS (IPOMOEA SPP.; 0.500 kg/ha): 0.0 | Herbicide rating (0-9) SETVI ([9]; 0.125 kg/ha): 0.0 | Herbicide rating (0-9) SETVI ([9]; 0.250 kg/ha): 0.0 | Herbicide rating (0-9) SETVI ([9]; 0.500 kg/ha): 0.0

Reference: EP0745599A2, “1-(3-Heterocyclylphenyl)-s-triazine-2,4,6-oxo or thiotrione herbicidal agents” (American Cyanamid Company, priority 1995, dated 1996)
